According to PubChem BioAssay AID248 (DTP/NCI, 2004):
Where “and” joins values, the source holds several entries; their conditions need not be identical. Equal entries are not always repeated. Inconclusive results and toxic doses are left out.

Test system: L1210 leukemia ip in BDF1 mice, survival T/C
Experiment: NCI In Vivo Anticancer Drug Screen. Data for tumor model L1210 Leukemia (intraperitoneal) in B6D2F1 (BDF1) mice
Details: endpoint: mean survival time, higher = longer survival
Summary of the method: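 Tumor cells were implanted, animals were treated, and survival was followed. The result divides the treated measurement by the vehicle-control measurement.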

**Q.** How did the T/C (dose: 1.88 mg/kg/injection, schedule: Q01DX Z (ip), vehicle: saline) turn out when `CC1CNC(c2ccc(NC(=O)c3ccc(C(=O)Nc4ccc(C5=NC(C)CN5)cc4)c(NC(=O)Nc4cccc(C5=NC(C)CN5)c4)c3)cc2)=N1` (centres undefined) was run?
**A.** 116 % of control

**Q.** And the T/C (dose: 3.75 mg/kg/injection, schedule: Q01DX Z (oral), vehicle: saline)?
**A.** 103 % of control

**Q.** What about the T/C (dose: 7.5 mg/kg/injection, schedule: Q01DX Z (ip), vehicle: saline) of the same molecule?
**A.** 153 % of control

**Q.** And the T/C (dose: 7.5 mg/kg/injection, schedule: Q01DX Z (oral), vehicle: saline)?
**A.** 106 % of control

**Q.** And the T/C (dose: 15.0 mg/kg/injection, schedule: Q01DX Z (oral), vehicle: saline)?
**A.** 101 % of control

**Q.** And the T/C (dose: 30.0 mg/kg/injection, schedule: Q01DX Z (oral), vehicle: saline)?
**A.** 117 % of control

**Q.** And the T/C (dose: 62.5 mg/kg/injection, schedule: Q01DX010 (oral), vehicle: saline)?
**A.** 99 % of control

**Q.** What about the T/C (dose: 125.0 mg/kg/injection, schedule: Q01DX010 (oral), vehicle: saline) of the same molecule?
**A.** 100 % of control

**Q.** And the T/C (dose: 250.0 mg/kg/injection, schedule: Q01DX010 (oral), vehicle: saline)?
**A.** 92 % of control

**Q.** For `CC(=O)c1cccc(N2C(=O)CC(=P(c3ccccc3)(c3ccccc3)c3ccccc3)C2=O)c1`, which T/C (dose: 75.0 mg/kg/injection, schedule: Q01DX001 (ip), vehicle: saline) is on record?
**A.** 93 % of control

**Q.** What does the source list for `BrC12CCC(CC1)C1CCC2CC1`?
**A.** T/C (dose: 100.0 mg/kg/injection, schedule: Q01DX009 (ip), vehicle: saline): 90 % of control; T/C (dose: 100.0 mg/kg/injection, schedule: Q04DX003 (ip), vehicle: saline): 96 % of control; T/C (dose: 200.0 mg/kg/injection, schedule: Q01DX009 (ip), vehicle: saline): 87 % of control; T/C (dose: 200.0 mg/kg/injection, schedule: Q04DX003 (ip), vehicle: saline): 97 % of control; T/C (dose: 400.0 mg/kg/injection, schedule: Q01DX009 (ip), vehicle: saline): 88 % of control; T/C (dose: 400.0 mg/kg/injection, schedule: Q04DX003 (ip), vehicle: saline): 98 % of control

**Q.** Which results are given for `CCN(C(=O)c1ccccc1C)C(c1ccccc1)P(=O)(c1ccccc1)c1ccccc1` (centres undefined)?
**A.** T/C (dose: 100.0 mg/kg/injection, schedule: Q01DX001 (ip), vehicle: saline with Tween-80): 118 % of control; T/C (dose: 100.0 mg/kg/injection, schedule: Q04DX002 (ip), vehicle: saline with Tween-80): 98 % of control and 100 % of control; T/C (dose: 100.0 mg/kg/injection, schedule: Q04DX003 (ip), vehicle: saline with Tween-80): 109 % of control and 86 % of control; T/C (dose: 200.0 mg/kg/injection, schedule: Q01DX001 (ip), vehicle: saline with Tween-80): 100 % of control; T/C (dose: 200.0 mg/kg/injection, schedule: Q04DX002 (ip), vehicle: saline with Tween-80): 93 % of control and 102 % of control; T/C (dose: 200.0 mg/kg/injection, schedule: Q04DX003 (ip), vehicle: saline with Tween-80): 94 % of control and 96 % of control; T/C (dose: 400.0 mg/kg/injection, schedule: Q01DX001 (ip), vehicle: saline with Tween-80): 97 % of control; T/C (dose: 400.0 mg/kg/injection, schedule: Q04DX002 (ip), vehicle: saline with Tween-80): 93 % of control and 90 % of control; T/C (dose: 400.0 mg/kg/injection, schedule: Q04DX003 (ip), vehicle: saline with Tween-80): 93 % of control and 112 % of control

**Q.** With `CN(C)C1C(=O)C(C(=O)NCNC(CCS)C(=O)O)=C(O)C2(O)C(=O)C3=C(O)c4c(O)cccc4C(C)(O)C3CC12` (centres undefined) as the molecule, how does the T/C (dose: 20.0 mg/kg/injection, schedule: Q01DX Z (ip), vehicle: saline) read?
**A.** 104 % of control

**Q.** And the T/C (dose: 40.0 mg/kg/injection, schedule: Q01DX Z (ip), vehicle: saline)?
**A.** 98 % of control

**Q.** What about the T/C (dose: 80.0 mg/kg/injection, schedule: Q01DX Z (ip), vehicle: saline) of the same molecule?
**A.** 96 % of control and 100 % of control

**Q.** What about the T/C (dose: 160.0 mg/kg/injection, schedule: Q01DX Z (ip), vehicle: saline) of the same molecule?
**A.** 98 % of control and 101 % of control

**Q.** And the T/C (dose: 320.0 mg/kg/injection, schedule: Q01DX Z (ip), vehicle: saline)?
**A.** 100 % of control

**Q.** For `CC1CC(C)(C)N=C(CCC2CCCC23OCCO3)O1` (centres undefined), which T/C (dose: 100.0 mg/kg/injection, schedule: Q01DX009 (ip), vehicle: saline sonified) is on record?
**A.** 98 % of control

**Q.** What about the T/C (dose: 100.0 mg/kg/injection, schedule: Q04DX003 (ip), vehicle: saline sonified) of the same molecule?
**A.** 101 % of control

**Q.** And the T/C (dose: 200.0 mg/kg/injection, schedule: Q01DX009 (ip), vehicle: saline sonified)?
**A.** 98 % of control

**Q.** What about the T/C (dose: 200.0 mg/kg/injection, schedule: Q04DX003 (ip), vehicle: saline sonified) of the same molecule?
**A.** 101 % of control

**Q.** What about the T/C (dose: 400.0 mg/kg/injection, schedule: Q01DX009 (ip), vehicle: saline sonified) of the same molecule?
**A.** 94 % of control

**Q.** And the T/C (dose: 400.0 mg/kg/injection, schedule: Q04DX003 (ip), vehicle: saline sonified)?
**A.** 101 % of control

**Q.** How did the T/C (dose: 100.0 mg/kg/injection, schedule: Q04DX002 (ip), vehicle: Klucel (hydroxypropylcellulose) (HPC)) turn out when `O=C1OCC/C1=C/OCCCCO/C=C1/CCOC1=O` was run?
**A.** 97 % of control

**Q.** And the T/C (dose: 200.0 mg/kg/injection, schedule: Q04DX002 (ip), vehicle: Klucel (hydroxypropylcellulose) (HPC))?
**A.** 97 % of control

**Q.** And the T/C (dose: 400.0 mg/kg/injection, schedule: Q04DX002 (ip), vehicle: Klucel (hydroxypropylcellulose) (HPC))?
**A.** 94 % of control
